We go through 37 molecules from patent US8492391B2, “Substituted 6-(2-hydroxybenzylamino)purine derivatives, their use as medicaments and compositions containing these derivatives” (Univerzita Palackeho V Olomouci, priority 2009, dated 2013).

One data set concerns the target T1, CDK2/cyclin E (Homo sapiens, UniProt P24941).
T1 construct: made in house; host or cells: Sf9 insect cells, baculovirus co-infection
Kind of data set: CDK2/cyclin E kinase inhibition assay. In kind it is biochemical. Conditions: kinase inhibitory activity, 15 μM ATP, histone substrate. The protocol:
(§1) Selected compounds were tested for CDK1/cyclin B, CDK2/cyclin E, CDK5/p25, CDK7/cyclin H and CDK9/cyclin T inhibitory activity to determine the basic relationships between their structure and the inhibitory activity. Cdk/cyclin complexes were expressed in Sf9 cells co-infected with appropriate baculoviral construct. The cells were harvested 70 hours post infection in lysis buffer (50 mM Tris pH 7.4, 150 mM NaCl, 5 mM EDTA, 20 mM NaF, 1% Tween 20, protease inhibitors) for 30 min on ice and the soluble fraction was recovered by centrifugation at 14.000 g for […]. The protein extract was stored at −80° C. until use. The final point test system for kinase activity measurement was used to carry out experiments on the kinetics under linear conditions. […] ATP and tested compound in a final volume of 20 μl, all in reaction buffer: 50 mM Hepes pH 7.4, 10 mM MgCl2, 5 mM EGTA, 10 mM 2-glycerolphosphate, 1 mM NaF, 1 mM DTT and protease inhibitors. After 30 min, the incubations were stopped by adding 5% H3PO4 and then the proteins were separated by phosphocellulose binding. The measurement of kinase inhibition employed the digital imaging analyzer BAS 1800. The kinase activity was expressed as a percentage of maximum activity and the IC50 value was determined by graphic analysis. The kinase activity is expressed as a percentage of maximum activity (FIG. 1).

The next data set concerns the target T2, CDK9/cyclin T (Homo sapiens, UniProt P50750).
T2 construct: made in house; host or cells: Sf9 insect cells, baculovirus co-infection
Nature of the data set: CDK9/cyclin T kinase inhibition assay. The format is biochemical. Conditions: kinase inhibitory activity, 15 μM ATP, (YSPTSPS)3 peptide substrate. The protocol: as §1

For data set [1], the system named is MCF7 (human breast adenocarcinoma). Nature of the data set: Calcein AM cytotoxicity assay, MCF7. The format is cell-based. Conditions: MCF7, read-out: Cytotoxic activity IC50 (μM) MCF7. The source says: (§2) Cytotoxicity of the compounds is the major property determining their anticancer effect in vivo. One of the parameters used, as the basis for cytotoxicity assays, is the metabolic activity of viable cells. For example, a microtiter assay, which uses the Calcein AM, is now widely used to quantitate cell proliferation and cytotoxicity. For instance, this assay is used in drug screening programs and in chemosensitivity testing. Because only metabolically active cells cleave Calcein AM, these assays detect viable cells exclusively. The quantity of cleaved Calcein AM corresponds to the number of vital cells in the culture. We have been using the following cell lines: MCF7 (human breast adenocarcinoma), K562 (human chronic myelogenous leukaemia), HOS (human osteogenic sarcoma), HeLa (human cervical carcinoma), HL 60 (human promyelocytic leukaemia), G 361 (human malignant melanoma), CEM (human lymphoblastoid leukaemia). All cell lines were grown in DMEM medium (Gibco BRL) supplemented with 10% (v/v) fetal bovine serum and L-glutamine and maintained at 37° C. in a humidified atmosphere with 5% CO2. For cytotoxicity assays, 10^4 cells were seeded into each well of 96 well plate, allowed to stabilize for at least 2 h and then tested compounds were added at various concentrations ranging from 100 to 0.1 μM in triplicates. Three days after drug addition Calcein AM solution (Molecular Probes) was added and let to enter the cells for 1 hour. Fluorescence of viable cells was quantified using Fluoroskan Ascent (Microsystems).

Data set [2] relates to K562 (human chronic myelogenous leukaemia). Nature of the data set: Calcein AM cytotoxicity assay, K562. In kind it is cell-based. The following applies: read-out: Cytotoxic activity IC50 (μM) K562.
Description: as §2

The test system of data set [3] is HOS (human osteogenic sarcoma). Kind of data set: Calcein AM cytotoxicity assay, HOS. In kind it is cell-based. Conditions: read-out: Cytotoxic activity IC50 (μM) HOS.
Description: as §2

Like-named read-outs stand apart in the source and are kept apart here.

T2 sequence (P50750 whole entry, species assumed): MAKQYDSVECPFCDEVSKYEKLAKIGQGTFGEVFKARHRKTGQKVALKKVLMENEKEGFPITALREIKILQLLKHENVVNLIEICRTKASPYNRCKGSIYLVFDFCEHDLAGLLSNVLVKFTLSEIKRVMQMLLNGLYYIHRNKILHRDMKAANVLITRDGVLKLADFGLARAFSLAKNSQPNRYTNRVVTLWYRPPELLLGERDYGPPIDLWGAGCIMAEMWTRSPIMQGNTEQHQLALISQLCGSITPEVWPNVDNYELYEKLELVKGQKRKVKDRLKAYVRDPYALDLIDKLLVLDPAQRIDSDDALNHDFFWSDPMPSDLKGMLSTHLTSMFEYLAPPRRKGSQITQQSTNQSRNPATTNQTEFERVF
T2 sequence (O60563 whole entry partner, species assumed): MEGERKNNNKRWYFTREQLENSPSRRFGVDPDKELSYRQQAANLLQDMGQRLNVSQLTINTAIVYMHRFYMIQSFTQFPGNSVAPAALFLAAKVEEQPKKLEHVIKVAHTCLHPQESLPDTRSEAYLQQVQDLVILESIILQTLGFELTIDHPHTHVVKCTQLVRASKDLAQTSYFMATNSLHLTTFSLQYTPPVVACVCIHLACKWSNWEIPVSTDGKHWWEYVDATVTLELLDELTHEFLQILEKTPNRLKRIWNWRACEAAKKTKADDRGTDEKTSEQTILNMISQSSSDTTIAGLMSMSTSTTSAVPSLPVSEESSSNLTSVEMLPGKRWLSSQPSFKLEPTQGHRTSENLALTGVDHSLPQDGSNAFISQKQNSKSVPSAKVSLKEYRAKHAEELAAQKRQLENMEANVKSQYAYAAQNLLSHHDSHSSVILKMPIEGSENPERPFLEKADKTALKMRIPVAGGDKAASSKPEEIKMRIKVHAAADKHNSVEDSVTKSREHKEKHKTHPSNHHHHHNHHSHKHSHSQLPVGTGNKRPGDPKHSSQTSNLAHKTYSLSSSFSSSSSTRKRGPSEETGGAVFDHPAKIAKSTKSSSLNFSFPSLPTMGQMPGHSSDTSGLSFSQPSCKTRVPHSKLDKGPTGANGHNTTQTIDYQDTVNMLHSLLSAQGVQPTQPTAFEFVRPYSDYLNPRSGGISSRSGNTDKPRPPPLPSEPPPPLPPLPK

In the case of `Cn1cnc2c(NCc3cc(Cl)ccc3O)nc(NC3CCCCC3N)nc21` (stereo not shown) [Compound 1], the IC50 on CDK2/cyclin E is 0.29 µM; against CDK9/cyclin T, 0.18 µM; in data set [1] (Homo sapiens), 43 µM; in data set [2] (Homo sapiens), 78 µM; in data set [3] (Homo sapiens), 65 µM.

As to `Cn1cnc2c(NCc3cc(Cl)ccc3O)nc(NC3CCC(N)CC3)nc21` (stereo not shown) [Compound 2], the IC50 is 0.27 µM at CDK2/cyclin E; 0.15 µM against CDK9/cyclin T; 46 µM in data set [1] (Homo sapiens); 82 µM in data set [2] (Homo sapiens); 64 µM in data set [3] (Homo sapiens).

Regarding `CCC(CO)Nc1nc(NCc2cc(Cl)ccc2O)c2ncn(C)c2n1` (stereo not shown) [Compound 3], the IC50 is 0.3 µM against CDK2/cyclin E; 0.12 µM against CDK9/cyclin T; 55 µM in data set [1] (Homo sapiens); 84 µM in data set [2] (Homo sapiens); 71 µM in data set [3] (Homo sapiens).

As for `CC(C)C(CO)Nc1nc(NCc2cc(Cl)ccc2O)c2ncn(C)c2n1` (stereo not shown) [Compound 4], the IC50 on CDK2/cyclin E came to 0.25 µM; at CDK9/cyclin T, 0.08 µM.

On to `Cn1cnc2c(NCc3cc(F)ccc3O)nc(NC3CCCCC3N)nc21` (stereo not shown) [Compound 7], for which the IC50 was 0.26 µM at CDK2/cyclin E; 0.15 µM against CDK9/cyclin T; 35 µM in data set [1] (Homo sapiens); 61 µM in data set [2] (Homo sapiens); 47 µM in data set [3] (Homo sapiens).

Take `Cn1cnc2c(NCc3cc(F)ccc3O)nc(NC3CCC(N)CC3)nc21` (stereo not shown) [Compound 8]: the IC50 against CDK2/cyclin E was 0.25 µM; at CDK9/cyclin T, 0.12 µM; in data set [1] (Homo sapiens) it was 39 µM; in data set [2] (Homo sapiens), 64 µM; in data set [3] (Homo sapiens) it was 50 µM.

`CCC(CO)Nc1nc(NCc2cc(F)ccc2O)c2ncn(C)c2n1` (stereo not shown) [Compound 9]: the IC50 on CDK2/cyclin E was 0.3 µM; at CDK9/cyclin T it was 0.17 µM; in data set [1] (Homo sapiens) it was 42 µM; in data set [2] (Homo sapiens), 67 µM; in data set [3] (Homo sapiens), 53 µM.

On to `COc1cccc(CNc2nc(NC3CCCCC3N)nc3c2ncn3C)c1O` (stereo not shown) [Compound 31], for which the IC50 against CDK2/cyclin E was 0.26 µM; against CDK9/cyclin T, 0.19 µM; in data set [1] (Homo sapiens) it was 36 µM; in data set [2] (Homo sapiens), 60 µM; in data set [3] (Homo sapiens), 45 µM.

As for `COc1cccc(CNc2nc(NC3CCC(N)CC3)nc3c2ncn3C)c1O` (stereo not shown) [Compound 32], the IC50 against CDK2/cyclin E is 0.22 µM; at CDK9/cyclin T it was 0.18 µM.

As for `CCC(CO)Nc1nc(NCc2cccc(OC)c2O)c2ncn(C)c2n1` (stereo not shown) [Compound 34], the values for the IC50 at CDK2/cyclin E and against CDK9/cyclin T were 0.27 µM and 0.16 µM, respectively.

On to `CCn1cnc2c(NCc3cc(Cl)ccc3O)nc(NC3CCCCC3N)nc21` (stereo not shown) [Compound 47], for which the IC50 was 32 µM in data set [1], 55 µM in data set [2] and 41 µM in data set [3].

As to `CCn1cnc2c(NCc3cc(Cl)ccc3O)nc(NC3CCC(N)CC3)nc21` (stereo not shown) [Compound 48], the IC50 against CDK2/cyclin E was determined as 0.14 µM; against CDK9/cyclin T, 0.09 µM.

For `CCC(CO)Nc1nc(NCc2cc(Cl)ccc2O)c2ncn(CC)c2n1` (stereo not shown) [Compound 50], the IC50 is 0.13 µM against CDK2/cyclin E; 0.12 µM on CDK9/cyclin T; 38 µM in data set [1] (Homo sapiens); 58 µM in data set [2] (Homo sapiens); 44 µM in data set [3] (Homo sapiens).

As to `CCn1cnc2c(NCc3cc(F)ccc3O)nc(NC3CCC(N)CC3)nc21` (stereo not shown) [Compound 51], the IC50 was 0.16 µM at CDK2/cyclin E; 0.1 µM against CDK9/cyclin T; 32 µM in data set [1] (Homo sapiens); 52 µM in data set [2] (Homo sapiens); 40 µM in data set [3] (Homo sapiens).

For `CCn1cnc2c(NCc3cc(C)ccc3O)nc(NC3CCCCC3N)nc21` (stereo not shown) [Compound 59], the IC50 on CDK2/cyclin E came out at 0.12 µM; on CDK9/cyclin T it was 0.05 µM.

`CCn1cnc2c(NCc3cccc(OC)c3O)nc(NC3CCC(N)CC3)nc21` (stereo not shown) [Compound 70]: the IC50 at CDK2/cyclin E was 0.11 µM; on CDK9/cyclin T it was 0.07 µM.

In the case of `CCC(CO)Nc1nc(NCc2ccc(OC)cc2O)c2ncn(CC)c2n1` (stereo not shown) [Compound 73], the IC50 at CDK2/cyclin E is 0.17 µM; at CDK9/cyclin T, 0.09 µM.

With `CC(C)n1cnc2c(NCc3cc(Cl)ccc3O)nc(NC3CCCCC3N)nc21` (stereo not shown) [Compound 76], the IC50 on CDK2/cyclin E was 0.05 µM; on CDK9/cyclin T, 0.03 µM; in data set [1] (Homo sapiens), 2.8 µM; in data set [2] (Homo sapiens), 9.9 µM; in data set [3] (Homo sapiens), 4.1 µM.

For `CC(C)n1cnc2c(NCc3cc(Cl)ccc3O)nc(NC3CCC(N)CC3)nc21` (stereo not shown) [Compound 77], the half-maximal inhibitory concentration (IC50) against CDK2/cyclin E was determined as 0.04 µM; at CDK9/cyclin T it was 0.01 µM.

As for `CC(C)n1cnc2c(NCc3cc(Cl)ccc3O)nc(NC(C)C(C)(C)O)nc21` (stereo not shown) [Compound 82], the IC50 at CDK2/cyclin E was 0.04 µM; against CDK9/cyclin T, 0.01 µM.

In the case of `CC(C)n1cnc2c(NCc3cc(Cl)ccc3O)nc(NCCC(C)(C)O)nc21` [Compound 83], the values for the IC50 against CDK2/cyclin E and against CDK9/cyclin T were 0.02 µM and 0.007 µM, respectively.

At CDK9/cyclin T, `CCC(CO)Nc1nc(NCc2cccc(C)c2O)c2ncn(C(C)C)c2n1` (stereo not shown) [Compound 101] registered an IC50 of 0.04 µM.

`CCC(CO)Nc1nc(NCc2cccc(O)c2O)c2ncn(C(C)C)c2n1` (stereo not shown) [Compound 113]: the IC50 was 0.04 µM at CDK9/cyclin T, 4.5 µM in data set [1] (Homo sapiens), 7.8 µM in data set [2] (Homo sapiens) and 8.4 µM in data set [3] (Homo sapiens).

Turning to `CC(C)n1cnc2c(NCc3cc(O)ccc3O)nc(NC3CCCCC3N)nc21` (stereo not shown) [Compound 121], the values for the IC50 against CDK2/cyclin E and at CDK9/cyclin T were 0.08 µM and 0.07 µM, respectively.

For the molecule `COc1cccc(CNc2nc(NCC(C)O)nc3c2ncn3C(C)C)c1O` (stereo not shown) [Compound 127], the IC50 was determined as 0.08 µM against CDK2/cyclin E and 0.06 µM at CDK9/cyclin T.

Consider `COc1cccc(CNc2nc(NC3CCC(O)CC3)nc3c2ncn3C(C)C)c1O` (stereo not shown) [Compound 136], for which the IC50 at CDK2/cyclin E was 0.05 µM; at CDK9/cyclin T, 0.03 µM.

Turning to `CCC(CO)Nc1nc(NCc2ccc(OC)cc2O)c2ncn(C(C)C)c2n1` (stereo not shown) [Compound 139], the IC50 on CDK2/cyclin E came out at 0.09 µM; against CDK9/cyclin T, 0.04 µM.

As for `COc1ccc(O)c(CNc2nc(NC3CCCCC3N)nc3c2ncn3C(C)C)c1` (stereo not shown) [Compound 143], the values for the IC50 in data set [1] and in data set [2] were 5 µM and 13.1 µM, respectively.

Consider `NC1CCCCC1Nc1nc(NCc2cc(Cl)ccc2O)c2ncn(Cc3ccccc3)c2n1` (stereo not shown) [Compound 179], for which the IC50 in data set [1] was 8.7 µM; in data set [2], 19.5 µM; in data set [3], 10.2 µM.

`NC1CCCCC1Nc1nc(NCc2cc(F)ccc2O)c2ncn(Cc3ccccc3)c2n1` (stereo not shown) [Compound 186]: the figures for the half-maximal inhibitory concentration (IC50) in data set [1], in data set [2] and in data set [3] were 6.9 µM, 15.4 µM and 9.3 µM, respectively.

With `CCC(CC)n1cnc2c(NCc3cc(Cl)ccc3O)nc(NC3CCCCC3N)nc21` (stereo not shown) [compound 223], the IC50 against CDK2/cyclin E is 0.08 µM; against CDK9/cyclin T, 0.05 µM; in data set [1], 4.8 µM; in data set [2], 17.6 µM; in data set [3] it was 6.8 µM.

Take `CCC(CO)Nc1nc(NCc2cc(Cl)ccc2O)c2ncn(C(CC)CC)c2n1` (stereo not shown) [compound 224]: the IC50 against CDK2/cyclin E is 0.09 µM; against CDK9/cyclin T, 0.06 µM; in data set [1] (Homo sapiens), 5.5 µM; in data set [2] (Homo sapiens) it was 15.6 µM; in data set [3] (Homo sapiens), 7.2 µM.

`CCC(CC)n1cnc2c(NCc3cc(F)ccc3O)nc(NC3CCCCC3N)nc21` (stereo not shown) [compound 226]: the IC50 is 4.1 µM in data set [1], 12.4 µM in data set [2] and 4.3 µM in data set [3].

For `CCC(CC)n1cnc2c(NCc3cc(F)ccc3O)nc(NC3CCC(N)CC3)nc21` (stereo not shown) [compound 227], the IC50 against CDK2/cyclin E is 0.06 µM; on CDK9/cyclin T, 0.01 µM.

Turning to `CCC(CO)Nc1nc(NCc2cccc(OC)c2O)c2ncn(C(CC)CC)c2n1` (stereo not shown) [compound 237], the 50% inhibitory concentration (IC50) on CDK2/cyclin E stood at 0.04 µM; against CDK9/cyclin T, 0.02 µM.

For `CCC(CC)n1cnc2c(NCc3cccc(OC)c3O)nc(NC3CCCCC3N)nc21` (stereo not shown) [compound 238], the values for the IC50 at CDK2/cyclin E and against CDK9/cyclin T were 0.06 µM and 0.04 µM, respectively.

As to `CCC(CO)Nc1nc(NCc2cc(OC)ccc2O)c2ncn(C(CC)CC)c2n1` (stereo not shown) [compound 240], the IC50 came out at 0.1 µM against CDK2/cyclin E and 0.07 µM at CDK9/cyclin T.

A word on the IC50: it is the point on the concentration scale where inhibition reaches its midpoint.
